A word on the IC50: it is the concentration at which inhibition is half-maximal. A low value points to greater potency in that assay. One may read the melting point as the temperature of the solid-liquid transition.

For nine compounds, IC50, melting point and inhibition in % results are on record in patent US20080293758A1, “Combination of a Steroid Sulfatase Inhibitor and an Ascomycin” (Novartis AG, priority 2005, published 2008).

Values joined by “and” are separate entries in the source; they are usually repeats but may differ in a detail not shown here. Equal entries are not always repeated.

Series [1] addresses T1, steroid sulfatase in human cadaver skin homogenate (Homo sapiens, UniProt P08842).
T1 construct: Frozen specimens of human cadaver skin (about 100 mg per sample) are minced into small pieces; from tissue; host or cells: human cadaver skin, minced and suspended in Tris buffer with 0.1% Triton X-100
T1 sequence (P08842 22-583): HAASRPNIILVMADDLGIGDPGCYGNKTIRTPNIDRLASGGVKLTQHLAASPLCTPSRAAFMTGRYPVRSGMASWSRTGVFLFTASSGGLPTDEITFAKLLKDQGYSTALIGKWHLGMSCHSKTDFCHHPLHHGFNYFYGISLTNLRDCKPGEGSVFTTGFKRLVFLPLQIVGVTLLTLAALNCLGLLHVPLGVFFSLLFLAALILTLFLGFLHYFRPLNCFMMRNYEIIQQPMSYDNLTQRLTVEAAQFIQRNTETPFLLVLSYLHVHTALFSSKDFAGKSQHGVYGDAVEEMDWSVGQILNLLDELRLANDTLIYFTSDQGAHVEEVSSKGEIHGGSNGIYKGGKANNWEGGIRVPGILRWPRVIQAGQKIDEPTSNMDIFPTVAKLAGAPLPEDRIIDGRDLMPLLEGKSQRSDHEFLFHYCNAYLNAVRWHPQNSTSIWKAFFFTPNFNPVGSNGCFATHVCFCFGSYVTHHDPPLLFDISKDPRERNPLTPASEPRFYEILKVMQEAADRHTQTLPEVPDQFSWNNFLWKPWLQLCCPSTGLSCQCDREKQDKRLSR
Nature of the series: Assay Using Human Skin Homogenate (DHEAS cleavage). In kind it is biochemical. The conditions noted are these: 18 hrs at 37° C. As for the experimental part: Frozen specimens of human cadaver skin (about 100 mg per sample) are minced into small pieces (about 1×1 mm) using sharp scissors. The pieces obtained are suspended in ten volumes (w/w) of buffer (20 mM Tris-HCl, pH 7.5), containing 0.1% Triton X-100. Test compounds (e.g. compounds of the present invention) are added at graded concentrations from stock solutions in ethanol or DMSO. Second, DHEAS as the substrate is added ([…] [^3H]DHEAS, specific activity: about 60 Ci/mmol, and 20 μM unlabeled DHEAS). Samples are incubated for 18 hrs at 37° C. At the end of the incubation period, 50 μl of 1 M Tris, pH 10.4 and 3 ml of toluene are added. A 1-ml aliquot of the organic phase is removed and subjected to liquid scintillation counting. The determined dpm-values in the aliquots are converted to nmol of DHEA cleaved per g of skin per hour.

Series [2] addresses T2, purified human steroid sulfatase (Homo sapiens, UniProt P08842).
T2 construct: Human placenta is obtained freshly after delivery and stripped of membranes and connective tissues; from tissue; host or cells: human placenta (microsomes, Triton X-100 extract, hydroxy apatite / concanavalin A sepharose / blue sepharose chromatography)
T2 sequence (P08842 22-583): T1 sequence (P08842 22-583)
Nature of the series: Assay of Human Steroid Sulfatase (4-methylumbelliferyl sulfate cleavage). The settings on record: reference compound, determined in parallel. In kind it is biochemical. As for the experimental part:
For storage, the material is frozen at −70° C.
The activity is recovered in the flow-through.
Plates are incubated at 37° C. for 1 hour.
Relative IC50 values are defined as follows: […]

The subject of series [3] is irritant contact dermatitis elicited with tetradecanoylphorbol-13-acetate (TPA) on mouse ears. The series can be described thus: Anti-Inflammatory Test System (TPA-elicited irritant contact dermatitis, auricular weights). In kind it is in vivo, mice, strain NMRI. The conditions noted are these: topical 10 μl, 6 hours after TPA. As for the experimental part:
The test sites on the inner surface of the right external ears of mice, e.g. strain NMRI, (8 per group) are treated with 10 μl of the dissolved test compound or with the vehicle (a 4:4:2 mixture of ethanol/acetone/dimethylacetamide) alone. The test compounds are applied alone or in combination at concentrations shown in the TEST RESULT TABLE. Thirty minutes after the treatment irritant contact dermatitis is elicitated at the treated auricular sites with 10 μl 0.005% tetradecanoylphorbol-13-acetate (TPA).
Skin inflammation is assessed 6 hours after the elicitation by determination of the auricular weights, as a measure of inflammatory swelling. The animals are killed and both ears are cut off and weighed. Inhibitory activity of test compounds is calculated from differences in right and left ears (internal controls) in mice treated with the test compounds compared with animals treated with the vehicle only. Results obtained are as set out in TEST RESULT TABLE below:
In the TEST RESULT TABLE the concentrations of the compounds (in bold) used are indicated in micromol/litre. The values given in the TEST RESULT TABLE (in regular letters) are the inhibition in % determined according to the ANTI-INFLAMMATORY TEST SYSTEM used.

On to `CC(C)(C)OC(=O)N1CC2CCCCC(C1)C2C(=O)NS(=O)(=O)c1cc(C(F)(F)F)cc(C(F)(F)F)c1` (single isomer, unassigned) [Example 217, 10-(3,5-bis-trifluoromethyl-benzenesulfonylaminocarbonyl)-8-aza-bicyclo[4.3.1]decane-8-carboxylic acid tert-butyl ester], for which, in series [1], the half-maximal inhibitory concentration (IC50) is 30 to 270 nM and 270 nM.

`O=C(NS(=O)(=O)c1cc(C(F)(F)F)cc(C(F)(F)F)c1)C1C2CCCCC1CN(C(=O)CC1CCCC1)C2` (centres unmarked) [Example 208]: the IC50 in series [1] fell in the range of 30 to 270 nM.

`CC(C)(C)OC(=O)N1CC2CCCCC(C1)C2C(=O)NS(=O)(=O)c1cc(C(F)(F)F)cc(C(F)(F)F)c1` (centres unmarked) [Example 218]: the half-inhibitory concentration (IC50) in series [1] is 30 to 270 nM and 270 nM.

The compound `NC(=O)c1ccc(C(F)(F)F)cc1N1CCC(CC(=O)NS(=O)(=O)c2cccc(Cl)c2Cl)CC1` [Example 248] showed a 50% inhibitory concentration (IC50) in series [1] of 30 to 270 nM.

`NC(=O)c1ccc(C(F)(F)F)cc1N1CCC(CC(=O)NS(=O)(=O)c2cc(Cl)cc(Cl)c2)CC1` [Example 249] displayed an IC50 in series [1] of 30 to 270 nM.

As for `Cc1c(Cl)cccc1S(=O)(=O)NC(=O)CC1CCN(c2cc(C(F)(F)F)ccc2C(N)=O)CC1` [Example 251], in series [1], the IC50 fell in the range of 30 to 270 nM.

`NC(=O)c1ccc(C(F)(F)F)cc1N1CCC(CS(=O)(=O)NC(=O)c2cc(C(F)(F)F)cc(C(F)(F)F)c2)CC1` [Example 379] had a melting point of 268 to 273 °C. The compound also had an IC50 in series [1] of 30 to 270 nM.

The compound `C[C@]12CC[C@@H]3c4ccc(OS(N)(=O)=O)cc4CC[C@H]3[C@@H]1CCC2=O` [estrone sulfamate, estrone 3-O-sulfamate] showed an IC50 in series [2] of approximately 60 nM.

In the case of `CC[C@@H]1/C=C(\C)C[C@H](C)C[C@H](OC)[C@H]2O[C@@](O)(C(=O)C(=O)N3CCCC[C@H]3C(=O)O[C@H](/C(C)=C/[C@@H]3CC[C@H](Cl)[C@H](OC)C3)[C@H](C)[C@@H](O)CC1=O)[C@H](C)C[C@@H]2OC` [pimecrolimus, {[1E-(1R,3R,4S)]1R,9S,12S,13R,14S,17R,18E,21S,23S,24R,25S,27R}-12-[2-(4-chloro-3-methoxycyclohexyl)-1-methylvinyl]-17-ethyl-1,14-dihydroxy-23,25-dimethoxy-13,19,21,27-tetramethyl-11,28,dioxa-4-azatricyclo[22.3.1.0(4,9)]octacos-18-ene-2,3,10,16-tetraone], the inhibition in % in series [3] (pimecrolimus 0.1, example 217 or 218 0 micromol/litre) is on record as 15%; in series [3] (pimecrolimus 0.3, example 217 or 218 0 micromol/litre), 29%; in series [3] (pimecrolimus 1.0, example 217 or 218 0 micromol/litre) it was 30%; in series [3] (pimecrolimus 3.0, example 217 or 218 0 micromol/litre), 31%; in series [3] (pimecrolimus 10, example 217 or 218 0 micromol/litre), 42%.
